Measurements from patent US20250320401A1, “CORROSION INHIBITOR AND RELATED METHODS OF INHIBITING THE CORROSION OF METAL SURFACES” (Schlumberger Technology Corporation, priority 2024, published 2025).

How the values were obtained:
rats [1] = test: Acute toxicity, oral LD50 in rats; assay type: in vivo; details: relative to reuterin
Source text: (§1) Biotechnologically produced 3-HPA and the 3-HPA derivatives, such as the cyclic dimeric form of FIG. 2 and others described herein, have a high potential as a food preservative and within health care. […] See Fernandez-Cruz M. L, Martín-Cabrejas I., Palacio J. P., Gaya P., Díaz-Navarro C., Navas J. M., Medina M., Arques J. L., “In vitro toxicity of reuterin, a potential food biopreservative,” Food and Chemical Toxicology 96, 2016, 155-159. In contrast for acrolein, the median intraperitoneal (i.p.) lethal dose 50 (LD50) was estimated to be 7 mg/kg by weight (bw) for mice. The acute toxicity of diacetyl after i.p. exposure in rats is low (525 mg/kg bw). […] The acute toxicity LD50 oral for propargyl alcohol is 20 mg/kg for rats. See Propargyl alcohol, MSDS, Aldrich-Sigma. Overall, the typical polymerizable corrosion inhibitors, i.e. acrolein and propargyl alcohol are 36 and 12 times respectively more toxic than reuterin.

rats [2] = details: cited from earlier work
[3] = cited from earlier work
Listeria monocytogenes = details: in meat products, milk and cottage cheese; cited from earlier work
[4] = Corrosion rate by weight loss analysis of steel coupons in inhibited hydrochloric acid; details: 3.57 mmol, 80° C.
Source text: The corrosion rates were studied by weight loss analysis. The low carbon steel HS80 tubing were cut into coupons of 29±3 cm^2 surface area using a water cooled band saw to minimize any changes in the properties of the metal that may result from heating. After cutting, the coupons were stamped for identification, glass bead blasted and cleaned in acetone to remove any residue from the machining process. The coupons were then dried, placed in plastic bags and stored in airtight jars to prevent contact with humidity or airborne contaminants. The initial surface area of each test coupon was determined by accurate (to four decimal places) measurement of its geometric dimensions.
Throughout the exposure period, isothermal conditions are maintained (for the present study, the temperature was maintained at 80° C.) and the inhibited acid is continuously stirred using a magnetic stirrer bar. Since the tests were designed to simulate oil well acid stimulation, no effort was made to remove dissolved oxygen from the acid. However, an argon blanket was used to stop any additional intrusion of oxygen during the one hour exposure period. Following each test, the coupons were rinsed in acetone and scrubbed with soap and water to remove residual inhibitor and corrosion deposits. […]

Escherichia coli = details: in meat products, milk and cottage cheese; cited from earlier work
mice [5] = details: cited from earlier work
mice [6] = test: Acute toxicity, intraperitoneal LD50 in mice; assay type: in vivo; details: relative to reuterin
Source text: as §1

rats [7] = details: cited from earlier work; remark: listed apart in the source

C#CCO [Propargyl alcohol]
times more toxic than reuterin (rats [1]): 12 times
acute toxicity LD50 oral (rats [2]): 20 mg/kg

O=CCCO [3-HPA, 3-Hydroxypropionaldehyde]
i.p. LD50 ([3]; i.p.): approximately 250 mg/kg bw
toxicity relative to diacetyl ([3]; relative to diacetyl): two times more toxic than diacetyl
growth inhibition (Listeria monocytogenes): inhibit the growth
inhibition efficiency ([4]; 4M HCl): 89%
inhibition efficiency ([4]; 28% HCl (so in the source)): 97%
growth inhibition (Escherichia coli): inhibit the growth

C=CC=O [Acrolein]
median intraperitoneal (i.p.) lethal dose 50 (LD50) (mice [5]): 7 mg/kg by weight (bw)
times more toxic than reuterin (mice [6]): 36 times

CC(=O)C(C)=O [diacetyl]
acute toxicity after i.p. exposure (rats [7]): 525 mg/kg bw
